Read-outs that look alike come from different tables or passages of the source.
Columns and labels:
Dermacentor variabilis = assay: In vitro contact test with adult hard ticks (Dermacentor variabilis); details: read-out: acaricidal activity; for pest or weed control at 1 µg/cm2, 1 µg/cm2: dose 1 μg/cm^2, 48 h; for pest or weed control at 0.2 µg/cm2, 0.2 µg/cm2: dose 0.2 μg/cm^2, 48 h
Method in brief: (§1)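 Adult R. sanguineus, I. ricinus, D. variabilis or A. americanum nymphs exposed in glass vials coated with compound from acetone (900 ppm gives 5 μg/cm^2). Held 48 h at room temperature (R. sanguineus) or 21° C., 85% rel. hum.; then heated at 45-50° C. ≤5 min, motionless or uncoordinated ticks scored dead/moribund.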

Rhipicephalus sanguineus = assay: In vitro contact test with adult hard ticks (Rhipicephalus sanguineus); details: read-out: acaricidal activity; for pest or weed control at 0.2 µg/cm2, 0.2 µg/cm2: dose 0.2 μg/cm^2, 48 h; for pest or weed control at 1 µg/cm2, 1 µg/cm2: dose 1 μg/cm^2, 48 h; for pest or weed control at 0.04 µg/cm2, 0.04 µg/cm2: dose 0.04 μg/cm^2, 48 h
Method in brief: as §1

[1] = tested on: Rhipicephalus (Boophilus) microplus; assay: In vitro injection test with Rhipicephalus (Boophilus) microplus (BOOPMI Inj); details: 168 h, laid fertile eggs after 7 days, read-out: acaricidal activity; for pest or weed control at 0.00016 mg: dose 0.16 μg/animal injected; for pest or weed control at 0.0008 mg: dose 0.8 μg/animal injected; for pest or weed control at 32 ng: dose 0.032 μg/animal injected
Method in brief: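 Test substance in DMSO; 1 μl injected into abdomen of each of 5 engorged adult female ticks, then held at 28° C., 85% rel. hum. Activity scored after 7 days from laying of fertile eggs: 100% = no eggs or all infertile, 0% = all eggs fertile.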

Ctenocephalides felis [2] = assay: Ctenocephalides felis in-vitro feeding test with fleas (CTECFE oral); details: 48 hours, read-out: insecticidal feeding activity; for pest or weed control at 0.16 ppm: dose 0.16 ppm in citrated cattle blood; for pest or weed control at 0.8 ppm: dose 0.8 ppm in citrated cattle blood; for pest or weed control at 4 ppm: dose 4 ppm in citrated cattle blood; for pest or weed control at 0.0064 ppm: dose 0.0064 ppm in citrated cattle blood; for pest or weed control at 0.032 ppm: dose 0.032 ppm in citrated cattle blood
Method in brief: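 About 20 unfed adult cat fleas fed through parafilm on citrated cattle blood containing test substance (DMSO solution diluted in blood), held at about 37° C. Kill rate scored after 48 hours, 100% meaning all fleas dead.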

Ctenocephalides felis [3] = assay: Systemic treatment in-vivo test with cat flea on rats; details: Ctenocephalides felis, ip, intraperitoneal injection
Method in brief: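 Rats dosed intraperitoneally per body weight in glycerol formal (up to 25% NMP for poorly soluble compounds). 30 D. variabilis nymphs released on treatment day and weekly, 30 C. felis fleas 24 h later; live attached engorged ticks counted at 48 h (±4 h), live fleas at 24 h, efficacy versus placebo group.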

Spodoptera litura = assay: Insecticidal testing against common cutworm; assay type: in vivo; details: foliar, 144 h, concentration 100 ppm, cabbage leaf dip, second-stage larvae, after 6 days, read-out: pesticidal rate
Description: Insecticidal Testing Against Common Cutworm (Spodoptera litura)

Plutella xylostella = assay: Insecticidal testing against diamondback moth; assay type: in vivo; details: foliar, 144 h, concentration 100 ppm, cabbage leaf dip, third-stage larvae, after 6 days, read-out: pesticidal rate
Description: Insecticidal Testing Against Diamondback Moth (Plutella xylostella)

Amblyomma americanum = assay: In vitro contact test with hard ticks (Amblyomma americanum nymphs); details: read-out: acaricidal activity; for pest or weed control at 0.2 µg/cm2, 0.2 µg/cm2: dose 0.2 μg/cm^2, 48 h; for pest or weed control at 1 µg/cm2, 1 µg/cm2: dose 1 μg/cm^2, 48 h
Method in brief: as §1

[4] = SD 2, read-out: Geometric mean percent reduction in live flea (Ctenocephalides felis) counts compared to untreated control rats
[5] = SD 9, read-out: Geometric mean percent reduction in live flea (Ctenocephalides felis) counts compared to untreated control rats
[6] = SD 16, read-out: Geometric mean percent reduction in live flea (Ctenocephalides felis) counts compared to untreated control rats
[7] = SD 23, read-out: Geometric mean percent reduction in live flea (Ctenocephalides felis) counts compared to untreated control rats
[8] = SD 30, read-out: Geometric mean percent reduction in live flea (Ctenocephalides felis) counts compared to untreated control rats

Structure (SMILES) | pest or weed control at 1 µg/cm2, 1 µg/cm2 (Dermacentor variabilis) [%] | pest or weed control at 0.2 µg/cm2, 0.2 µg/cm2 (Rhipicephalus sanguineus) [%] | pest or weed control at 1 µg/cm2, 1 µg/cm2 (Rhipicephalus sanguineus) [%] | pest or weed control at 0.00016 mg [1] [%] | pest or weed control at 0.0008 mg [1] [%] | pest or weed control at 0.16 ppm (Ctenocephalides felis [2]) [%] | pest or weed control at 0.8 ppm (Ctenocephalides felis [2]) [%] | pest or weed control at 4 ppm (Ctenocephalides felis [2]) [%] | inhibition in vivo at 10 mg/kg (Ctenocephalides felis [3]; [4]) [%] | inhibition in vivo at 10 mg/kg (Ctenocephalides felis [3]; [5]) [%] | inhibition in vivo at 10 mg/kg (Ctenocephalides felis [3]; [6]) [%] | inhibition in vivo at 10 mg/kg (Ctenocephalides felis [3]; [7]) [%] | inhibition in vivo at 10 mg/kg (Ctenocephalides felis [3]; [8]) [%] | pest or weed control at 100 ppm (Spodoptera litura) [%] | pest or weed control at 100 ppm (Plutella xylostella) [%] | pest or weed control at 0.2 µg/cm2, 0.2 µg/cm2 (Amblyomma americanum) [%] | pest or weed control at 1 µg/cm2, 1 µg/cm2 (Amblyomma americanum) [%] | pest or weed control at 0.2 µg/cm2, 0.2 µg/cm2 (Dermacentor variabilis) [%] | pest or weed control at 32 ng [1] [%] | pest or weed control at 0.032 ppm (Ctenocephalides felis [2]) [%] | further results
CN(C(=O)c1ccc(C(F)(F)F)nc1)c1cccc(C(=O)Nc2c(I)cc(C(F)(C(F)(F)F)C(F)(F)F)cc2C(F)(F)F)c1F [Compound 66, N-(2-fluoro-3-((2-iodo-4-(perfluoropropan-2-yl)-6-(trifluoromethyl)phenyl)carbamoyl)phenyl)-N-methyl-6-(trifluoromethyl)nicotinamide] | 90 | 90 | 90 | 100 | 100 | 95 | 95 | 95 | 100 | 100 | 100 | 100 | 79 | ≥ 70 | ≥ 70 | – | – | – | – | – | –
CN(C(=O)c1ccc(F)nc1)c1cccc(C(=O)Nc2c(I)cc(C(F)(C(F)(F)F)C(F)(F)F)cc2C(F)(F)F)c1F [Compound 115, 6-fluoro-N-(2-fluoro-3-((2-iodo-4-(perfluoropropan-2-yl)-6-(trifluoromethyl)phenyl)carbamoyl)phenyl)-N-methylnicotinamide] | 90 | 90 | 90 | 100 | 100 | 95 | 95 | 95 | 100 | 100 | 99 | 47 | 8 | ≥ 70 | ≥ 70 | 90 | 90 | 90 | 100 | 95 | pest or weed control at 0.04 µg/cm2, 0.04 µg/cm2 (Rhipicephalus sanguineus): 90%; pest or weed control at 0.0064 ppm (Ctenocephalides felis [2]): 95%; inhibition in vivo at 2 mg/kg (Ctenocephalides felis [3]; [4]): 100%; inhibition in vivo at 2 mg/kg (Ctenocephalides felis [3]; [5]): 98%; inhibition in vivo at 2 mg/kg (Ctenocephalides felis [3]; [6]): 73%
O=C(Nc1cccc(C(=O)Nc2c(I)cc(C(F)(C(F)(F)F)C(F)(F)F)cc2C(F)(F)F)c1F)c1ccc(C(F)(F)F)nc1 [Compound 67, N-(2-fluoro-3-((2-iodo-4-(perfluoropropan-2-yl)-6-(trifluoromethyl)phenyl)carbamoyl)phenyl)-6-(trifluoromethyl)nicotinamide] | 90 | 90 | 90 | 100 | 100 | 95 | 95 | 95 | 100 | 100 | 93 | 61 | 58 | ≥ 70 | ≥ 70 | 90 | 90 | 90 | – | – | pest or weed control at 0.04 µg/cm2, 0.04 µg/cm2 (Rhipicephalus sanguineus): 90%; inhibition in vivo at 2 mg/kg (Ctenocephalides felis [3]; [4]): 100%; inhibition in vivo at 2 mg/kg (Ctenocephalides felis [3]; [5]): 96%; inhibition in vivo at 2 mg/kg (Ctenocephalides felis [3]; [6]): 78%; inhibition in vivo at 2 mg/kg (Ctenocephalides felis [3]; [7]): 11%
CN(C(=O)c1ccc(F)c(F)c1)c1cccc(C(=O)Nc2c(I)cc(C(F)(C(F)(F)F)C(F)(F)F)cc2C(F)(F)F)c1F [Compound 51] | 90 | 90 | 90 | 100 | 100 | 95 | 95 | 95 | 100 | 100 | 98 | 90 | 90 | ≥ 70 | ≥ 70 | – | 90 | 90 | 100 | 95 | pest or weed control at 0.0064 ppm (Ctenocephalides felis [2]): 95%; inhibition in vivo at 2 mg/kg (Ctenocephalides felis [3]; [4]): 100%; inhibition in vivo at 2 mg/kg (Ctenocephalides felis [3]; [5]): 96%; inhibition in vivo at 2 mg/kg (Ctenocephalides felis [3]; [6]): 67%; inhibition in vivo at 2 mg/kg (Ctenocephalides felis [3]; [7]): 37%
CN(C(=O)c1ccc(F)cc1)c1cccc(C(=O)Nc2c(I)cc(C(F)(C(F)(F)F)C(F)(F)F)cc2C(F)(F)F)c1F [Compound 24] | – | – | 90 | 100 | 100 | – | 95 | 95 | – | – | – | – | – | – | – | 90 | 90 | – | 100 | – | inhibition in vivo at 5 mg/kg (Ctenocephalides felis [3]; [4]): 100%; inhibition in vivo at 5 mg/kg (Ctenocephalides felis [3]; [5]): 99%; inhibition in vivo at 5 mg/kg (Ctenocephalides felis [3]; [6]): 99%; inhibition in vivo at 5 mg/kg (Ctenocephalides felis [3]; [7]): 36%
CN(C(=O)c1ccc(C(F)(F)F)nc1)c1cccc(C(=O)Nc2c(I)cc(C(F)(C(F)(F)F)C(F)(F)C(F)(F)F)cc2C(F)(F)F)c1F (stereo not drawn) [Compound 119] | 90 | – | – | 100 | 100 | 95 | 95 | 95 | 100 | 97 | 94 | 62 | 44 | ≥ 70 | ≥ 70 | – | 90 | 90 | 100 | 95 | –
CN(C(=O)c1ccc(F)cc1)c1cccc(C(=O)Nc2c(I)cc(C(F)(C(F)(F)F)C(F)(F)C(F)(F)F)cc2C(F)(F)F)c1F (stereo not drawn) [Compound 37] | 90 | 90 | 90 | 100 | 100 | 95 | 95 | 95 | 100 | 97 | 97 | 100 | 80 | – | – | 90 | 90 | 90 | 100 | 95 | pest or weed control at 6.4 ng ([1]; dose 0.0064 μg/animal injected): 100%

Reference: US11696913B2, “Prolonged ectoparasite-controlling agent for animal” (MITSUI CHEMICALS AGRO, INC., priority 2017, dated 2023)
